# In US20170354147A1, “SAFENING AMINOPYRALID COMPOSITIONS IN BRASSICA SPECIES WITH CLOPYRALID AND METHODS OF USE THEREOF” (Dow AgroSciences LLC, priority 2016, published 2017):
# “And” between values parts separate entries of the source, which are not always exact repeats. Equal entries are not always repeated.
# Columns and labels:
# Type in all cases: in vivo
# [1] = tested on: Spring Argentine canola (Brassica napus, BRSNS), Nex 1012 glyphosate-tolerant, BRSNS-RR; test: Field trials Canada, postemergence crop safety (visual injury) to glyphosate-tolerant Spring Argentine canola
# Text: (§1) BRSOM=Brassica oleracea var. acephala subvar. Medullosa (stem kale) BRSSS=Brassica sp. (Aparima Gold swede) BRSNS-RR=Brassica napus (spring rape or Spring Argentine rape, Roundup® Ready) g ae/ha=grams acid equivalent per hectare Mean % visual injury=observed value of percent (%) injury rated visually Observed Mean % visual injury=observed value of percent (%) injury rated visually Colby predicted mean % visual injury=expected value of percent (%) injury as calculated by Colby's equation Mean % visual leafroll=observed value of percent (%) leafroll rated visually Observed Mean % visual leafroll=observed value of percent (%) leafroll rated visually Colby predicted mean % visual leafroll=expected value of percent (%) leafroll as calculated by Colby's equation Mean % visual growth inhibition=observed value of percent (%) growth inhibition rated visually Observed Mean % visual growth inhibition=observed value of percent (%) growth inhibition rated visually Colby predicted mean % visual growth inhibition=expected value of percent (%) growth inhibition as calculated by Colby's equation
# Field trials were established in Canada (in Manitoba, Alberta, and Saskatchewan) to evaluate crop safety of herbicide treatments to Spring Argentine canola (Brassica napus, BRSNS). Trials were designed as randomized complete blocks with four replicates. Trials were established as weed-free crop tolerance trials with plot sizes of 2-3 meters (m) by 8-25 m (width×length). The crops were grown using normal cultural practices for fertilization, seeding, and maintenance to ensure good growth of the crop.
# The overall injury assessments were based on visual ratings of growth inhibition, leaf deformity, epinasty, chlorosis and delay in maturity. Assessments were made at 8-10 days after treatment (DAT) for an initial rating, 14-17 DAT for an early-season rating, 28-32 DAT for a mid-season rating, and 42-55 DAT for a late-season rating.
# Aminopyralid-triisopropanolammonium (TIPA) was applied as Milestone® (240 g ae/L SL); clopyralid-olamine was applied as Lontrel™ 360 (360 g ae/L SL); and glyphosate-dimethylammonium was applied as Vantage™ XRT (480 g ae/L SL).
# [2] = tested on: Aparima Gold swede (Brassica sp., BRSSS); test: Pot trials, postemergence crop safety (visual injury) to Aparima Gold swede
# Text: (§2) The following equation was used to calculate the expected activity of mixtures containing two active ingredients, A and B:
# (§3) Expected=A+B−(A×B/100) • A=observed efficacy of active ingredient A at the same concentration as used in the mixture; • B=observed efficacy of active ingredient B at the same concentration as used in the mixture.
# as §1
# (§4) Two pot trials were established at Dow AgroSciences Waireka Field Research Station, New Zealand to evaluate crop safety of herbicide treatments to two species of leafy and bulb forage brassica crops (stem kale (Brassica oleracea var. acephala subvar. medullosa, BRSOM) and Aparima Gold swede (Brassica sp., BRSSS)). Trials were designed as randomized complete blocks with five replicates. Trials were established as weed-free tolerance trials. Pot size was 10 by 10 centimeters (cm, width×length). The forage brassica crops were grown using normal cultural practices for fertilization, seeding, watering and maintenance to ensure good growth of the crops.
# (§5) All herbicide treatments were applied post-emergence with applications made to the crops at the 2 to 5-leaf stage. Herbicides were applied with a belt spray chamber system with compressed air as a propellant. The sprayer utilized a flat fan spray nozzle calibrated to deliver a uniform spray pattern that provided thorough coverage of the foliage using a 200 liters per hectare (L/ha) spray volume. All treatments were applied with Uptake adjuvant (paraffinic oil/Non-Ionic Surfactant blend) at 0.5% volume per volume (v/v). Phytotoxicity to the crops was assessed visually at several intervals after application as percent overall injury, compared to an untreated control plot. The overall injury assessments were based on visual ratings of growth inhibition, leaf deformity, epinasty, and chlorosis.
# (§6) Aminopyralid-triisopropanolammonium (TIPA) was applied as Tordon™ Max Herbicide (30 grams acid equivalent per liter (g ae/L) soluble (liquid) concentrate (SL)), and clopyralid-TIPA was applied as Versatill™ (300 g ae/L SL), The compositions tested, application rates employed, plant species tested, and results are given in Table 1 through Table 3.
# [3] = tested on: Aparima Gold swede (Brassica sp., BRSSS); test: Field trials Canterbury, New Zealand, postemergence crop safety (visual injury, growth inhibition) to Aparima Gold swede
# Text: as §2, §3, §1
# Two field trials were established in Canterbury, New Zealand to evaluate crop safety of herbicide treatments to leafy forage brassica crops (Aparima Gold swede (Brassica sp., BRSSS)). Trials were designed as randomized complete blocks with four replicates. All trials were established as weed-free tolerance trials with plot size of 3 meters (m) by 8 m (width×length). The crops were grown using normal cultural practices for fertilization, seeding, and maintenance to ensure good growth of the crop.
# All herbicide treatments were applied post-emergence with applications made to the crops at the 3 to 5-leaf stage. Herbicides were applied with backpack sprayers using carbon dioxide (CO2) as a propellant. […] All treatments were applied with Uptake adjuvant (paraffinic oil/Non-Ionic Surfactant blend) at 1% v/v. Phytotoxicity to the crops was assessed visually at several intervals after application as percent overall injury, compared to an untreated control plot. The overall injury assessments were based on visual ratings of growth inhibition, leaf deformity, epinasty, and chlorosis.
# Aminopyralid-TIPA was applied as Tordon™ Max Herbicide (30 g ae/L SL), and clopyralid-TIPA was applied as Versatill™ (300 g ae/L SL),
# [4] = tested on: stem kale (Brassica oleracea var. acephala subvar. medullosa, BRSOM); test: Pot trials, postemergence crop safety (visual injury, leafroll) to stem kale
# Text: as §2, §3, §1, §4, §5, §6
# [5] = 10 g ae/ha, with Glyphosate-DMA 450 g ae/ha
# [6] = 20 g ae/ha, with Glyphosate-DMA 450 g ae/ha
# [7] = Glyphosate-DMA 450 g ae/ha alone (Aminopyralid-TIPA 0 g ae/ha)
compound,measurement,setting,value
"Nc1cc(Cl)nc(C(=O)O)c1Cl [Aminopyralid TIPA, tris (2-hydroxypropyl)ammonium 4-amino-3,6-dichloropyridine-2-carboxylate]",Mean % Visual Injury Early (14-17) DAT,[1]; [5],1.9%
same,Mean % Visual Injury Initial (8-10 DAT),[1]; [5],2.8%
same,Mean % Visual Injury Late (42-55 DAT),[1]; [5],1.5%
same,Mean % Visual Injury Mid (28-32 DAT),[1]; [5],2.3%
same,Mean % Visual Injury Early (14-17) DAT,[1]; [6],5%
same,Mean % Visual Injury Initial (8-10 DAT),[1]; [6],5%
same,Mean % Visual Injury Late (42-55 DAT),[1]; [6],0.6%
same,Mean % Visual Injury Mid (28-32 DAT),[1]; [6],5.6%
same,Mean % Visual Injury,"[2]; 3DAA1, 60 g ae/ha",6.8%
same,Mean % Visual Injury,"[2]; 7DAA1, 60 g ae/ha",9.6%
same,Mean % Visual Injury,"[2]; 15DAA1, 60 g ae/ha",15.4%
same,Mean % Visual Injury,"[2]; 28DAA1, 60 g ae/ha",15.6%
same,Mean % Visual Growth Inhibition,"[3]; 13DAA1, 60 g ae/ha",28.8% and 28.9%
same,Mean % Visual Injury,"[3]; 13DAA1, 60 g ae/ha",22.5%
same,Mean % Visual Injury,"[3]; 22DAA1, 60 g ae/ha",28.8%
same,Mean % Visual Growth Inhibition,"[3]; 28DAA1, 60 g ae/ha",45.0%
same,Mean % Visual Injury,"[3]; 28DAA1, 60 g ae/ha",38.8%
same,Mean % Visual Growth Inhibition,"[3]; 56DAA1, 60 g ae/ha",8.8%
CNC.O=C(O)CNCP(=O)(O)O [Glyphosate-DMA],Mean % Visual Injury Early (14-17) DAT,[1]; [7],0.4%
same,Mean % Visual Injury Initial (8-10 DAT),[1]; [7],1%
same,Mean % Visual Injury Late (42-55 DAT),[1]; [7],0.2%
same,Mean % Visual Injury Mid (28-32 DAT),[1]; [7],1.5%
"O=C(O)c1nc(Cl)ccc1Cl [Clopyralid TIPA, (2RS,2′RS,2″RS)-tris(2-hydroxypropyl)ammonium 3,6-dichloropyridine-2-carboxylate]",Mean % Visual Leafroll,"[4]; 1DAA1, 90 g ae/ha",0.0%
same,Mean % Visual Leafroll,"[4]; 1DAA1, 180 g ae/ha",0.0%
same,Mean % Visual Leafroll,"[4]; 1DAA1, 360 g ae/ha",0.0%
same,Mean % Visual Leafroll,"[4]; 4DAA1, 90 g ae/ha",0.0%
same,Mean % Visual Leafroll,"[4]; 4DAA1, 180 g ae/ha",0.0%
same,Mean % Visual Injury,"[4]; 7DAA1, 45.0 g ae/ha",0.0% and 0.7%
same,Mean % Visual Injury,"[4]; 7DAA1, 90.0 g ae/ha",0.0% and 0.7%
same,Mean % Visual Injury,"[4]; 7DAA1, 180.0 g ae/ha",0.0% and 0.7%
same,Mean % Visual Injury,"[4]; 7DAA1, 360.0 g ae/ha",0.0% and 0.7%
same,Mean % Visual Injury,"[4]; 15DAA1, 22.5 g ae/ha",0.0%
same,Mean % Visual Injury,"[4]; 15DAA1, 45 g ae/ha",0%
same,Mean % Visual Injury,"[4]; 15DAA1, 90 g ae/ha",0%
same,Mean % Visual Leafroll,"[4]; 15DAA1, 90 g ae/ha",0.0%
same,Mean % Visual Leafroll,"[4]; 15DAA1, 180 g ae/ha",0.0%
same,Mean % Visual Injury,"[4]; 15DAA1, 180.0 g ae/ha",0.0%
same,Mean % Visual Leafroll,"[4]; 15DAA1, 360 g ae/ha",0.0%
same,Mean % Visual Injury,"[4]; 15DAA1, 360.0 g ae/ha",0.0%
same,Mean % Visual Injury,"[4]; 28DAA1, 90.0 g ae/ha",0.0%
same,Mean % Visual Injury,"[4]; 28DAA1, 360 g ae/ha",0%
same,Mean % Visual Leafroll,"[4]; 28DAA1, 360 g ae/ha",0.0%
same,Mean % Visual Injury,"[2]; 3DAA1, 90 g ae/ha",2.2%
same,Mean % Visual Injury,"[2]; 7DAA1, 90 g ae/ha",0.4%
same,Mean % Visual Injury,"[2]; 15DAA1, 90 g ae/ha",0.0%
same,Mean % Visual Injury,"[2]; 28DAA1, 90 g ae/ha",0.0%
same,Mean % Growth Inhibition,"[3]; 13DAA1, 45 g ae/ha",2.8%
same,Mean % Visual Injury,"[3]; 13DAA1, 45 g ae/ha",0.8%
same,Mean % Growth Inhibition,"[3]; 13DAA1, 90 g ae/ha",8.8%
same,Mean % Growth Inhibition,"[3]; 13DAA1, 180 g ae/ha",7.5%
same,Mean % Visual Injury,"[3]; 13DAA1, 180 g ae/ha",2.3%
same,Mean % Visual Injury,"[3]; 22DAA1, 45 g ae/ha",0.0%
same,Mean % Growth Inhibition,"[3]; 28DAA1, 180 g ae/ha",3.8%
same,Mean % Visual Injury,"[3]; 28DAA1, 180 g ae/ha",3.0%
same,Mean % Growth Inhibition,"[3]; 56DAA1, 45 g ae/ha",6.0%
